Among the data in ChEMBL document CHEMBL1138964, “Synthesis and efficacy of 1-[bis(4-fluorophenyl)-methyl]piperazine derivatives for acetylcholinesterase inhibition, as a stimulant of central cholinergic neurotransmission in Alzheimer's disease” (Bioorg Med Chem Lett, 2006) are IC50 and Activity values, retold here.

The IC50 is the concentration at which inhibition is half-maximal.

Assay [1] deals with Acetylcholinesterase (Electrophorus electricus, UniProt O42275). Briefly: Inhibition of electric eel AchE.
Acetylcholinesterase (Electrophorus electricus, UniProt O42275), sequence (O42275 whole entry): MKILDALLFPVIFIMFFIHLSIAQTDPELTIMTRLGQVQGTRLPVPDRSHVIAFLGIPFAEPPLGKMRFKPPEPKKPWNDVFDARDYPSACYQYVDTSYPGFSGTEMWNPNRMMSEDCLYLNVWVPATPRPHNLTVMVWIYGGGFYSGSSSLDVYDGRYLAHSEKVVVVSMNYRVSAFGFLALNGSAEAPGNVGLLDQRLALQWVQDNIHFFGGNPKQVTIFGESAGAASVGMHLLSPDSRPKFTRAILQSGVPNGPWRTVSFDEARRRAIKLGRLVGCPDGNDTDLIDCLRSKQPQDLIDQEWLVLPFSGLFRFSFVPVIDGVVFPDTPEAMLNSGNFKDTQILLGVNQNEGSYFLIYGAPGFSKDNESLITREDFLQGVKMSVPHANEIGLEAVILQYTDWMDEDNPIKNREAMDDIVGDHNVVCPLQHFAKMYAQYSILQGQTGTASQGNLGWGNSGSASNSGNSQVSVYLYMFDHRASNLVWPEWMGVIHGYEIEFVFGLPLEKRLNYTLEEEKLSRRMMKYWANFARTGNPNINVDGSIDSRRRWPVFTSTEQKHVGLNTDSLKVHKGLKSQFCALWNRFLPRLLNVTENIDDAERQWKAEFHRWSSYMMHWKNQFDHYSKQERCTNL
Assay [2] relates to Rattus norvegicus. Briefly: Antiamnesic effect against scopolamine-induced memory loss in passive avoidance step-down task paradigm in rat assessed as number of mistakes at 0.1 mg/kg, ip. In kind it is functional. The following applies: route intraperitoneal.
The target of assay [3] is Acetylcholinesterase (Homo sapiens, UniProt P22303). Description: Inhibition of human serum AchE.
Acetylcholinesterase (Homo sapiens, UniProt P22303), sequence (P22303 whole entry): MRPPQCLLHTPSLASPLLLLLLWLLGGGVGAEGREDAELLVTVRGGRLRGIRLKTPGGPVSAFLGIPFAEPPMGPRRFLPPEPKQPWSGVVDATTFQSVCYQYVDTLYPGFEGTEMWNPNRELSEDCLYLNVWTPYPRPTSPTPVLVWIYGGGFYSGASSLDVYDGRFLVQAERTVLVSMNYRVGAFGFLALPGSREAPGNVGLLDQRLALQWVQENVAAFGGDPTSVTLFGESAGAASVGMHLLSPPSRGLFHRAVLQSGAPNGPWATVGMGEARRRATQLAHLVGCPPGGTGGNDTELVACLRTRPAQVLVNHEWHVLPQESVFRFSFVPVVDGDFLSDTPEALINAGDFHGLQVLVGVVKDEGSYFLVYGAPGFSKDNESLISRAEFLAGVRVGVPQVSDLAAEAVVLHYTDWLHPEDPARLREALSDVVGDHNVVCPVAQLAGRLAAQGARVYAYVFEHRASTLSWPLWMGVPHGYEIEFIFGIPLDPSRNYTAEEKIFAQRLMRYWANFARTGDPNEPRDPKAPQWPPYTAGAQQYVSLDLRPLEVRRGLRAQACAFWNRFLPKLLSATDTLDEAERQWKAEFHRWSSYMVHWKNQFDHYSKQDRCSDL
The target of assay [4] is T1, Acetylcholinesterase (Rattus norvegicus, UniProt P37136).
T1 sequence (P37136 whole entry): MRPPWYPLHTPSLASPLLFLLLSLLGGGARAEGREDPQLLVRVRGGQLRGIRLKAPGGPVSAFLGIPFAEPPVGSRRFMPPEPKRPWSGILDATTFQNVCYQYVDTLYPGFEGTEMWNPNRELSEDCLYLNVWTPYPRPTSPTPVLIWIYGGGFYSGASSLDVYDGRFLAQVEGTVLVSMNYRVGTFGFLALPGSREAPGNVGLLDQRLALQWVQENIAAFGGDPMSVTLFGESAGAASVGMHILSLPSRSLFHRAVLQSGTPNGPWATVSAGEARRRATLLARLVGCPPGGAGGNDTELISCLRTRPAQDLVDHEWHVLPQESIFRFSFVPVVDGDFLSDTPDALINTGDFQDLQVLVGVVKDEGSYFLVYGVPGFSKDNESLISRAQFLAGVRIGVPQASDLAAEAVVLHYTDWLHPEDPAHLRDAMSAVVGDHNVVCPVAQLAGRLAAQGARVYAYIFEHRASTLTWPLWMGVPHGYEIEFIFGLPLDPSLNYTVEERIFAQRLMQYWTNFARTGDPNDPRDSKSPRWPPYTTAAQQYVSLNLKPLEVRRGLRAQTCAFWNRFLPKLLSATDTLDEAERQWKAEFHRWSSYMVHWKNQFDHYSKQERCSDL
Briefly: Inhibition of rat brain homogenate AchE.

For assay [5], the system named is Rattus norvegicus. Briefly: Antiamnesic effect in passive avoidance step-down task paradigm in rat assessed as number of mistakes at 0.4 mg/kg, ip. In kind it is functional. To be noted: route intraperitoneal.

Consider `COc1cc(Br)c(CN2CCN(C(c3ccc(F)cc3)c3ccc(F)cc3)CC2)cc1OC`, for which the IC50 is 715 nM on Acetylcholinesterase [1], 1010 nM on Acetylcholinesterase [3] and “Not Active” at Acetylcholinesterase [4]. Moreover, the Activity in the assay with Rattus norvegicus [2] was 34.

Take `CN1[C@@H]2C[C@@H](OC(=O)[C@H](CO)c3ccccc3)C[C@H]1[C@@H]1O[C@@H]12` [SCOPOLAMINE]: the Activity in the assay on Rattus norvegicus [5] is reported as 35.

`Cc1cc2c(cc1CN1CCN(C(c3ccc(F)cc3)c3ccc(F)cc3)CC1)OCO2`: the IC50 against Acetylcholinesterase [1] is 1140 nM; at Acetylcholinesterase [3] it was 1340 nM; against Acetylcholinesterase [4], “Not Active”. The Activity in the assay on Rattus norvegicus [2] is reported as 33.

As for `Fc1ccc(C(c2ccc(F)cc2)N2CCN(CCN3CCOCC3)CC2)cc1`, the values for the IC50 at Acetylcholinesterase [1], against Acetylcholinesterase [3] and on Acetylcholinesterase [4] (read-out: IC50) were 253 nM, 284 nM and 200 nM, respectively. Moreover, the Activity with Rattus norvegicus [2] is given as 16.

On to `Fc1ccc(C(c2ccc(F)cc2)N2CCN(CCN3CCCC3)CC2)cc1`, for which the IC50 against Acetylcholinesterase [1] was 17.6 nM; at Acetylcholinesterase [3], 21 nM; on Acetylcholinesterase [4] (read-out: IC50), 18.7 nM. Moreover, the Activity with Rattus norvegicus [2] turned out to be 10.

In the case of `CC1=C(CCN2CCN(C(c3ccc(F)cc3)c3ccc(F)cc3)CC2)C(=O)C2CCCCC2=N1` (stereo not given), the IC50 against Acetylcholinesterase [1] was 1210 nM; on Acetylcholinesterase [3] it was 1070 nM; at Acetylcholinesterase [4] it was “Not Active”. The Activity in the assay on Rattus norvegicus [2] is reported as 34.

As to `N#Cc1ccccc1-c1ccc(CN2CCN(C(c3ccc(F)cc3)c3ccc(F)cc3)CC2)cc1`, the IC50 was 70.5 nM on Acetylcholinesterase [1], 73.6 nM at Acetylcholinesterase [3] and 37.5 nM on Acetylcholinesterase [4] (read-out: IC50). Further, the Activity in the assay with Rattus norvegicus [2] was found to be 11.

For the compound `CN(C)C(=O)Oc1cccc([N+](C)(C)C)c1` [NEOSTIGMINE METHYLSULFATE], the IC50 against Acetylcholinesterase [1] was determined as 41100 nM; on Acetylcholinesterase [4] (read-out: IC50) it was 37.5 nM.

In the case of `Cc1nc2ccccn2c(=O)c1CCN1CCN(C(c2ccc(F)cc2)c2ccc(F)cc2)CC1`, the IC50 on Acetylcholinesterase [1] is 2130 nM; against Acetylcholinesterase [3], 3200 nM; against Acetylcholinesterase [4], “Not Active”. The Activity with Rattus norvegicus [2] came out at 32.

As to `Fc1ccc(C(c2ccc(F)cc2)N2CCN(CCN3CCCCC3)CC2)cc1`, the IC50 on Acetylcholinesterase [1] was determined as 135 nM; on Acetylcholinesterase [3] it was 126 nM; at Acetylcholinesterase [4] (read-out: IC50), 93.7 nM. Moreover, the Activity in the assay on Rattus norvegicus [2] came out at 12.
